Source: patent US10479780B2, “Aminopyrazole derivatives” (Chugai Seiyaku Kabushiki Kaisha, priority 2015, dated 2019)

Legend:
Type in all cases: biochemical
human Yes1 enzyme = target: T1, human Yes1 enzyme (Homo sapiens, UniProt P07947); assay: Yes1 enzyme inhibitory activity (time-resolved fluorometry, biotinylated peptide phosphorylation); conditions: biotinylated peptide phosphorylation, read-out: YES_IC50
T1 construct: made in house
Outline: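 Inhibition was expressed against a compound-free control to give IC50, using TR-FRET read-out (Eu-cryptate anti-pTyr antibody, streptavidin-XL665).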

human Src enzyme = target: T2, human Src enzyme (Homo sapiens, UniProt P12931); assay: Src enzyme inhibitory activity (time-resolved fluorometry, biotinylated peptide phosphorylation); conditions: biotinylated peptide phosphorylation, read-out: SRC_IC50
T2 construct: purchased Carna Biosciences, Inc. 08-173
T2 sequence (P12931 whole entry): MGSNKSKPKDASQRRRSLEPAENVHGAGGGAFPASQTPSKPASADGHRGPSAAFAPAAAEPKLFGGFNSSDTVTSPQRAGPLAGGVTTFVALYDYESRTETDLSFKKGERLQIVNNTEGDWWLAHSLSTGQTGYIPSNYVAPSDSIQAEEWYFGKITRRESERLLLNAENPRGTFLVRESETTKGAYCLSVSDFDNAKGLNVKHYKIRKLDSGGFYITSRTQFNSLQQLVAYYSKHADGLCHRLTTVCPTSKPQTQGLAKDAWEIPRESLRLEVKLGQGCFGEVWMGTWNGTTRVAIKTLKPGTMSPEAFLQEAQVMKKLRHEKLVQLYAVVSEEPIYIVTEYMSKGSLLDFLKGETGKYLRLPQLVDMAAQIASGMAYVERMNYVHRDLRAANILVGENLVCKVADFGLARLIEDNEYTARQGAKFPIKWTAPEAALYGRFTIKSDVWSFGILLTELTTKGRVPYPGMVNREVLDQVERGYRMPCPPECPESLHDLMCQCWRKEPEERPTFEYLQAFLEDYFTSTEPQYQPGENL
Outline: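 Compounds were tested for blocking tyrosine phosphorylation of a biotinylated peptide substrate by recombinant human Src. Phosphorylated product was quantified by time-resolved fluorometry using europium cryptate and XL665 conjugates, and IC50 was calculated against the compound-free control.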

human Lck enzyme = target: T3, human Lck enzyme (Homo sapiens, UniProt P06239); assay: Lck enzyme inhibitory activity (time-resolved fluorometry, biotinylated peptide phosphorylation); conditions: biotinylated peptide phosphorylation, read-out: LCK_IC50
T3 construct: purchased Carna Biosciences, Inc. 08-170
T3 sequence (P06239 whole entry): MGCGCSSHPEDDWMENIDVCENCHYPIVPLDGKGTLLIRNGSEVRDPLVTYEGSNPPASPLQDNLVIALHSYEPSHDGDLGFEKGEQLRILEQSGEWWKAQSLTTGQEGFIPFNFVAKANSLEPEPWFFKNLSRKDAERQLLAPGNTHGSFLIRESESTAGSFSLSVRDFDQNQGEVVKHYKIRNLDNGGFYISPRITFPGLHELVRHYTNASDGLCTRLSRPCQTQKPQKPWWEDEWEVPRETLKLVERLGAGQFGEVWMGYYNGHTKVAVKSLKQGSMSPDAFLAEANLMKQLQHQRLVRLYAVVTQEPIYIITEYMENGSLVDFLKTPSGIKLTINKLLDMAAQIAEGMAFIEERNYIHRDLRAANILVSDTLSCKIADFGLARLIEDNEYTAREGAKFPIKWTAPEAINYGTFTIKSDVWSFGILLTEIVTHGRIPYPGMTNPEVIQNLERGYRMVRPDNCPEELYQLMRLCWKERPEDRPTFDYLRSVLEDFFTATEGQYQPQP
Outline: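 Readout pairs a europium cryptate-labelled anti-phosphotyrosine antibody with XL665-streptavidin, measured by time-resolved fluorescence. IC50 derived from percent inhibition against untreated controls.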

T1 sequence (P07947 whole entry): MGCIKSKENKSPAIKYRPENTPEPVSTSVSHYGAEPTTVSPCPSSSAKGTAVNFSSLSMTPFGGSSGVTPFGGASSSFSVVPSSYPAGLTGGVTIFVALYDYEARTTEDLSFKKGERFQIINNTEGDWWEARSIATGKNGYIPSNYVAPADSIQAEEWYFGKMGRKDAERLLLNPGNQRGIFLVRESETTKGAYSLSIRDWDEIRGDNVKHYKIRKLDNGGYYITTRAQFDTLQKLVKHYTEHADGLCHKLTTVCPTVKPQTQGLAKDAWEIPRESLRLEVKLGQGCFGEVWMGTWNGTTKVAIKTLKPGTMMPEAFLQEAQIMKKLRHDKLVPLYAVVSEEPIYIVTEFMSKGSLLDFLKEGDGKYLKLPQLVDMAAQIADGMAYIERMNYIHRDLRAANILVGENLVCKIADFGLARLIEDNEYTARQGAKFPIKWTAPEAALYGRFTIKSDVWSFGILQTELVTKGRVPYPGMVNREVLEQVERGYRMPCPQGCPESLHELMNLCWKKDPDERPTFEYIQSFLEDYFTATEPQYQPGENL

| Structure (SMILES) | IC50 (human Yes1 enzyme) [nM] | IC50 (human Src enzyme) [nM] | IC50 (human Lck enzyme) [nM] |
| --- | --- | --- | --- |
| Cc1cc(Oc2ccccc2F)ccc1-n1ncc(C(=O)c2cc3cc(F)c(N4C(=O)[C@@H]5CCCN5C4=O)cc3[nH]2)c1N [Example 5-1-448, (7aS)-2-[2-[5-amino-1-[4-(2-fluorophenoxy)-2-methylphenyl]pyrazole-4-carbonyl]-5-fluoro-1H-indol-6-yl]-5,6,7,7a-tetrahydropyrrolo [1,2-c]imidazole-1,3-dione] | 1.2 | 23 | 3.9 |
| Cc1cc(Oc2ccccc2F)ccc1-n1ncc(C(=O)c2cc3cc(F)c(N4C(=O)[C@@H]5C[C@@H](O)CN5C4=O)cc3[nH]2)c1N [Example 5-1-449, (6R,7aS)-2-[2-[5-amino-1-[4-(2-fluorophenoxy)-2-methylphenyl]pyrazole-4-carbonyl]-5-fluoro-1H-indol-6-yl]-6-hydroxy-5,6,7,7a-tetrahydropyrrolo[1,2-c]imidazole-1,3-dione] | 0.66 | 13 | 3.3 |
| Cc1cc(Oc2ccccc2F)ccc1-n1ncc(C(=O)c2cc3cc(F)c(N4C(=O)NC5(CCCCC5)C4=O)cc3[nH]2)c1N [Example 5-1-450, 3-[2-[5-amino-1-[4-(2-fluorophenoxy)-2-methylphenyl]pyrazole-4-carbonyl]-5-fluoro-1H-indol-6-yl]-1,3-diazaspiro[4.5]decane-2,4-dione] | 3 | 150 | 22 |
| Cc1cc2cc(C(=O)c3cnn(-c4cnc(Oc5c(F)cccc5F)cc4C)c3N)[nH]c2cc1N1C(=O)N[C@@H](CO)C1=O [Example 5-1-451, (5S)-3-[2-[5-amino-1-[6-(2,6-difluorophenoxy)-4-methylpyridin-3-yl]pyrazole-4-carbonyl]-5-methyl-1H-indol-6-yl]-5-(hydroxymethyl) imidazolidine-2,4-dione] | 0.89 | 41 | 4.6 |
| Cc1cc2cc(C(=O)c3cnn(-c4cnc(Oc5c(F)cccc5F)cc4C)c3N)[nH]c2cc1N1C(=O)N[C@@H](Cc2ccccc2)C1=O [Example 5-1-452, (5S)-3-[2-[5-amino-1-[6-(2,6-difluorophenoxy)-4-methylpyridin-3-yl]pyrazole-4-carbonyl]-5-methyl-1H-indol-6-yl]-5-benzylimidazolidine-2,4-dione] | 5.4 | 150 | 28 |
| Cc1cc2cc(C(=O)c3cnn(-c4cnc(Oc5c(F)cccc5F)cc4C)c3N)[nH]c2cc1N1C(=O)N[C@@H](C(C)C)C1=O [Example 5-1-453, (5S)-3-[2-[5-amino-1-[6-(2,6-difluorophenoxy)-4-methylpyridin-3-yl]pyrazole-4-carbonyl]-5-methyl-1H-indol-6-yl]-5-propan-2-ylimidazolidine-2,4-dione] | 3.2 | 130 | 12 |
| Cc1cc2cc(C(=O)c3cnn(-c4cnc(Oc5c(F)cccc5F)cc4C)c3N)[nH]c2cc1N1C(=O)[C@@H]2CCCN2C1=O [Example 5-1-454, (7aS)-2-[2-[5-amino-1-[6-(2,6-difluorophenoxy)-4-methylpyridin-3-yl]pyrazole-4-carbonyl]-5-methyl-1H-indol-6-yl]-5,6,7,7a-tetrahydropyrrolo[1,2-c]imidazole-1,3-dione] | 1.7 | 40 | 5.1 |
| Cc1cc2cc(C(=O)c3cnn(-c4cnc(Oc5c(F)cccc5F)cc4C)c3N)[nH]c2cc1N1C(=O)[C@@H]2C[C@@H](O)CN2C1=O [Example 5-1-455, (6R,7aS)-2-[2-[5-amino-1-[6-(2,6-difluorophenoxy)-4-methylpyridin-3-yl]pyrazole-4-carbonyl]-5-methyl-1H-indol-6-yl]-6-hydroxy-5,6,7,7a-tetrahydropyrrolo[1,2-c]imidazole-1,3-dione] | 0.86 | 23 | 2.6 |
| Cc1cc2cc(C(=O)c3cnn(-c4ccc(Oc5ccccc5F)cc4C)c3N)[nH]c2cc1N1C(=O)N[C@@H](CO)C1=O [Example 5-1-456, (5S)-3-[2-[5-amino-1-[4-(2-fluorophenoxy)-2-methylphenyl]pyrazole-4-carbonyl]-5-methyl-1H-indol-6-yl]-5-(hydroxymethyl)imidazolidine-2,4-dione] | 0.4 | 8.8 | 2.2 |
| Cc1cc2cc(C(=O)c3cnn(-c4ccc(Oc5ccccc5F)cc4C)c3N)[nH]c2cc1N1C(=O)N[C@@H](Cc2ccccc2)C1=O [Example 5-1-457, (5S)-3-[2-[5-amino-1-[4-(2-fluorophenoxy)-2-methylphenyl]pyrazole-4-carbonyl]-5-methyl-1H-indol-6-yl]-5-benzylimidazolidine-2,4-dione] | 2.3 | 78 | 19 |
| Cc1cc2cc(C(=O)c3cnn(-c4ccc(Oc5ccccc5F)cc4C)c3N)[nH]c2cc1N1C(=O)[C@@H]2CCCN2C1=O [Example 5-1-458, (7aS)-2-[2-[5-amino-1-[4-(2-fluorophenoxy)-2-methylphenyl]pyrazole-4-carbonyl]-5-methyl-1H-indol-6-yl]-5,6,7,7a-tetrahydropyrrolo[1,2-c]imidazole-1,3-dione] | 0.73 | 16 | 4 |
| Cc1cc2cc(C(=O)c3cnn(-c4ccc(Oc5ccccc5F)cc4C)c3N)[nH]c2cc1N1C(=O)[C@@H]2C[C@@H](O)CN2C1=O [Example 5-1-459, (6R,7aS)-2-[2-[5-amino-1-[4-(2-fluorophenoxy)-2-methylphenyl]pyrazole-4-carbonyl]-5-methyl-1H-indol-6-yl]-6-hydroxy-5,6,7,7a-tetrahydropyrrolo[1,2-c]imidazole-1,3-dione] | 0.44 | 7.7 | 2.7 |
| Cc1cc2cc(C(=O)c3cnn(-c4cnc(Oc5ccccc5F)cc4C)c3N)[nH]c2cc1NS(=O)(=O)c1cc(F)cc(F)c1 [Example 5-1-460, N-[2-[5-amino-1-[6-(2-fluorophenoxy)-4-methylpyridin-3-yl]pyrazole-4-carbonyl]-5-methyl-1H-indol-6-yl]-3,5-difluorobenzenesulfonamide] | 4.5 | 770 | 200 |
| Cc1cc(C)c(S(=O)(=O)Nc2cc3[nH]c(C(=O)c4cnn(-c5cnc(Oc6ccccc6F)cc5C)c4N)cc3cc2C)c(C)c1 [Example 5-1-461] | 17 | 3500 | 590 |
| Cc1cccc(S(=O)(=O)Nc2cc3[nH]c(C(=O)c4cnn(-c5cnc(Oc6ccccc6F)cc5C)c4N)cc3cc2C)c1 [Example 5-1-462, N-[2-[5-amino-1-[6-(2-fluorophenoxy)-4-methylpyridin-3-yl]pyrazole-4-carbonyl]-5-methyl-1H-indol-6-yl]-3-methylbenzenesulfonamide] | 6.1 | 1000 | 260 |
| Cc1cc2cc(C(=O)c3cnn(-c4cnc(Oc5ccccc5F)cc4C)c3N)[nH]c2cc1NS(=O)(=O)c1cccc(C(F)(F)F)c1 [Example 5-1-463, N-[2-[5-amino-1-[6-(2-fluorophenoxy)-4-methylpyridin-3-yl]pyrazole-4-carbonyl]-5-methyl-1H-indol-6-yl]-3-(trifluoromethyl) benzenesulfonamide] | 12 | 1900 | 420 |
| Cc1cc2cc(C(=O)c3cnn(-c4cnc(Oc5ccccc5F)cc4C)c3N)[nH]c2cc1NS(=O)(=O)c1cccc(Cl)c1 [Example 5-1-464, N-[2-[5-amino-1-[6-(2-fluorophenoxy)-4-methylpyridin-3-yl]pyrazole-4-carbonyl]-5-methyl-1H-indol-6-yl]-3-chlorobenzenesulfonamide] | 9.3 | 1200 | 310 |
| Cc1cc2cc(C(=O)c3cnn(-c4cnc(Oc5ccccc5F)cc4C)c3N)[nH]c2cc1NS(=O)(=O)c1cccc2ccccc12 [Example 5-1-465, N-[2-[5-amino-1-[6-(2-fluorophenoxy)-4-methylpyridin-3-yl]pyrazole-4-carbonyl]-5-methyl-1H-indol-6-yl]naphthalene-1-sulfonamide] | 25 | 4000 | 510 |
| Cc1cc2cc(C(=O)c3cnn(-c4cnc(Oc5ccccc5F)cc4C)c3N)[nH]c2cc1NS(=O)(=O)c1ccc2ccccc2c1 [Example 5-1-466, N-[2-[5-amino-1-[6-(2-fluorophenoxy)-4-methylpyridin-3-yl]pyrazole-4-carbonyl]-5-methyl-1H-indol-6-yl]naphthalene-2-sulfonamide] | 28 | 4400 | 520 |
| Cc1cc2cc(C(=O)c3cnn(-c4cnc(Oc5ccccc5F)cc4C)c3N)[nH]c2cc1NS(=O)(=O)c1csc2ccccc12 [Example 5-1-467, N-[2-[5-amino-1-[6-(2-fluorophenoxy)-4-methylpyridin-3-yl]pyrazole-4-carbonyl]-5-methyl-1H-indol-6-yl]-1-benzothiophene-3-sulfonamide] | 24 | 3800 | 370 |
| Cc1cc(-n2ncc(C(=O)c3cc4cc(C)c(N5C(=O)NC6(CCC6)C5=O)cc4[nH]3)c2N)ccc1Oc1ccccc1F [Example 5-1-468, 7-[2-[5-amino-1-[4-(2-fluorophenoxy)-3-methylphenyl]pyrazole-4-carbonyl]-5-methyl-1H-indol-6-yl]-5,7-diazaspiro[3.4]octane-6,8-dione] | 11 | 7800 | 430 |
| Cc1cc(-n2ncc(C(=O)c3cc4cc(C)c(N5C(=O)NC6(CCOCC6)C5=O)cc4[nH]3)c2N)ccc1Oc1ccccc1F [Example 5-1-469, 3-[2-[5-amino-1-[4-(2-fluorophenoxy)-3-methylphenyl]pyrazole-4-carbonyl]-5-methyl-1H-indol-6-yl]-8-oxa-1,3-diazaspiro[4.5] decane-2,4-dione] | 9 | 2700 | 100 |
